Results published in the CheMixHub ionic liquid set.
± gives the uncertainty stated by the source.

Assay: xn = mol fraction of the nth substance listed

CCCCCCCCOS(=O)(=O)[O-].CC[n+]1ccn(C)c1 + O + O=S(=O)([O-])[O-].[Li+].[Li+]
101 kPa, frequency 0.0005 MHz, x2 = 0.8284, x3 = 0.003275
Conditions	electrical conductivity [S/m]
283.15 K	0.479 ± 0.029
285.15 K	0.518 ± 0.031
287.15 K	0.561 ± 0.034
288.15 K	0.582 ± 0.035
289.15 K	0.605 ± 0.037
291.15 K	0.649 ± 0.039
293.15 K	0.698 ± 0.042
298.15 K	0.83 ± 0.05
303.15 K	0.975 ± 0.059
313.15 K	1.31 ± 0.079
323.15 K	1.68 ± 0.1
333.15 K	2.1 ± 0.13
343.15 K	2.62 ± 0.16
348.15 K	2.87 ± 0.17
358.15 K	3.41 ± 0.2
363.15 K	3.68 ± 0.22

101 kPa, x2 = 0.8284, x3 = 0.003275
Conditions	viscosity [mPa·s]
293.15 K	101 ± 2.4
296.15 K	85.2 ± 1.9
298.15 K	76.4 ± 1.7
303.15 K	58.9 ± 1.3
308.15 K	46.1 ± 1
318.15 K	29.59 ± 0.65
328.15 K	19.97 ± 0.44
338.15 K	14.04 ± 0.31

CCCCCCCCOS(=O)(=O)[O-].CC[n+]1ccn(C)c1 + O + O=S(=O)([O-])[O-].[Na+].[Na+]
101 kPa, frequency 0.0005 MHz, x2 = 0.7732, x3 = 0.0003656
Conditions	electrical conductivity [S/m]
283.15 K	0.483 ± 0.029
285.15 K	0.523 ± 0.032
288.15 K	0.59 ± 0.036
291.15 K	0.655 ± 0.04
293.15 K	0.699 ± 0.042
298.15 K	0.829 ± 0.05
303.15 K	0.977 ± 0.059
313.15 K	1.35 ± 0.081
323.15 K	1.68 ± 0.1
333.15 K	2.11 ± 0.13
343.15 K	2.63 ± 0.16
353.15 K	3.13 ± 0.19
358.15 K	3.41 ± 0.21
363.15 K	3.72 ± 0.22

101 kPa, x2 = 0.7732, x3 = 0.0003656
Conditions	viscosity [mPa·s]
295.65 K	86.6 ± 2
298.15 K	75.4 ± 1.7
303.15 K	58 ± 1.3
308.15 K	45.4 ± 1
318.15 K	29.06 ± 0.64
328.15 K	19.55 ± 0.43
338.15 K	13.72 ± 0.3

CCCCCC[n+]1ccn(C)c1.O=S(=O)([N-]S(=O)(=O)C(F)(F)F)C(F)(F)F + O=C1CCCO1
100 kPa, frequency 0.005 MHz
Conditions	electrical conductivity [S/m]
293.15 K, x2 = 0.2973	0.296 ± 0.009
293.15 K, x2 = 0.9001	1.11 ± 0.034
293.15 K, x2 = 0.9493	0.746 ± 0.025
298.15 K, x2 = 0.1076	0.261 ± 0.008
298.15 K, x2 = 0.9493	0.819 ± 0.028
303.15 K, x2 = 0	0.273 ± 0.008
303.15 K, x2 = 0.4956	0.657 ± 0.02
303.15 K, x2 = 0.9001	1.34 ± 0.041
308.15 K, x2 = 0	0.33 ± 0.01
308.15 K, x2 = 0.1076	0.387 ± 0.012
308.15 K, x2 = 0.2973	0.514 ± 0.016
308.15 K, x2 = 0.9001	1.45 ± 0.044
313.15 K, x2 = 0.1076	0.459 ± 0.014
313.15 K, x2 = 0.2973	0.596 ± 0.018
313.15 K, x2 = 0.6996	1.31 ± 0.04
313.15 K, x2 = 0.8456	1.61 ± 0.048
318.15 K, x2 = 0.2973	0.687 ± 0.021
318.15 K, x2 = 0.8456	1.73 ± 0.052
318.15 K, x2 = 0.9493	1.11 ± 0.038
323.15 K, x2 = 0	0.553 ± 0.017
323.15 K, x2 = 0.1076	0.624 ± 0.019
323.15 K, x2 = 0.2973	0.788 ± 0.024
323.15 K, x2 = 0.8001	1.85 ± 0.056
323.15 K, x2 = 0.8456	1.88 ± 0.057

CCC[P+](c1ccccc1)(c1ccccc1)c1ccccc1.[Br-] + O=S=O + OCCO
100 kPa
Conditions	viscosity [mPa·s]
303.15 K, x2 = 0.01565, x3 = 0.9603	20.6 ± 0.9
313.15 K, x2 = 0.01166, x3 = 0.9642	17 ± 0.7
323.15 K, x2 = 0.009018, x3 = 0.9668	14.1 ± 0.6
333.15 K, x2 = 0.007838, x3 = 0.968	11.6 ± 0.5
343.15 K, x2 = 0.006951, x3 = 0.9688	10.5 ± 0.4

CCCCCC[n+]1ccn(C)c1.[Br-] + OC1OC[C@@H](O)[C@H](O)[C@H]1O + O
298.15 K, 101 kPa
Conditions	viscosity [mPa·s]
x2 = 0, x1 = 0.001844	0.948 ± 0.014
x2 = 0, x1 = 0.003654	1.005 ± 0.015
x2 = 0, x1 = 0.005425	1.053 ± 0.015
x2 = 0, x1 = 0.007153	1.101 ± 0.015

CCC[P+](c1ccccc1)(c1ccccc1)c1ccccc1.[Br-] + OCCO
100 kPa, x2 = 0.9756
Conditions	viscosity [mPa·s]
303.15 K	20.5 ± 0.8
313.15 K	17.1 ± 0.7
323.15 K	14 ± 0.6
333.15 K	11.6 ± 0.5
343.15 K	10 ± 0.4
353.15 K	9.1 ± 0.4

CCCCCC[n+]1ccn(C)c1.[Br-] + OC[C@H]1O[C@@](CO)(O[C@H]2O[C@H](CO)[C@@H](O)[C@H](O)[C@H]2O)[C@@H](O)[C@@H]1O + O
viscosity [mPa·s], 100 kPa
Conditions	288.15 K	298.15 K	308.15 K	318.15 K
x2 = 0.0009263, x1 = 0.001797	1.271 ± 0.027	0.986 ± 0.021	0.785 ± 0.017	0.651 ± 0.014
x2 = 0.000945, x1 = 0.003588	1.33 ± 0.03	1.022 ± 0.022	0.827 ± 0.018	0.683 ± 0.015
x2 = 0.001856, x1 = 0.001795	1.334 ± 0.028	1.034 ± 0.022	0.826 ± 0.018	0.681 ± 0.015
x2 = 0.001901, x1 = 0.003584	1.403 ± 0.03	1.07 ± 0.02	0.87 ± 0.02	0.711 ± 0.015
x2 = 0.001946, x1 = 0.005366	1.495 ± 0.032	1.142 ± 0.024	0.891 ± 0.019	0.74 ± 0.02
x2 = 0.002732, x1 = 0.001794	1.394 ± 0.03	1.074 ± 0.023	0.859 ± 0.018	0.711 ± 0.015
x2 = 0.002803, x1 = 0.003581	1.468 ± 0.031	1.123 ± 0.024	0.904 ± 0.019	0.74 ± 0.02
x2 = 0.002858, x1 = 0.005362	1.568 ± 0.033	1.191 ± 0.025	0.949 ± 0.02	0.78 ± 0.02
x2 = 0.003653, x1 = 0.001792	1.453 ± 0.031	1.124 ± 0.024	0.897 ± 0.019	0.735 ± 0.016
x2 = 0.003711, x1 = 0.003578	1.538 ± 0.033	1.173 ± 0.025	0.941 ± 0.02	0.775 ± 0.017
x2 = 0.003775, x1 = 0.005357	1.637 ± 0.035	1.245 ± 0.026	0.99 ± 0.02	0.807 ± 0.017
x2 = 0.004453, x1 = 0.003575	1.596 ± 0.034	1.222 ± 0.026	0.975 ± 0.021	0.805 ± 0.017
x2 = 0.004552, x1 = 0.005352	1.699 ± 0.036	1.293 ± 0.027	1.023 ± 0.022	0.834 ± 0.018
x2 = 0.005421, x1 = 0.001789	1.601 ± 0.034	1.229 ± 0.026	0.975 ± 0.021	0.793 ± 0.017
x2 = 0.005541, x1 = 0.003571	1.672 ± 0.035	1.287 ± 0.027	1.018 ± 0.022	0.835 ± 0.018
x2 = 0.005596, x1 = 0.005347	1.794 ± 0.038	1.365 ± 0.029	1.078 ± 0.023	0.875 ± 0.019
x2 = 0.006166, x1 = 0.001788	1.649 ± 0.035	1.272 ± 0.027	1.01 ± 0.02	0.82 ± 0.02
x2 = 0.006277, x1 = 0.003569	1.745 ± 0.037	1.342 ± 0.028	1.061 ± 0.023	0.868 ± 0.018
x2 = 0.006372, x1 = 0.005343	1.862 ± 0.039	1.416 ± 0.03	1.114 ± 0.024	0.906 ± 0.019
x2 = 0.007317, x1 = 0.001786	1.761 ± 0.037	1.347 ± 0.029	1.059 ± 0.023	0.863 ± 0.018
x2 = 0.007401, x1 = 0.005337	1.984 ± 0.042	1.498 ± 0.032	1.184 ± 0.025	0.952 ± 0.02
x2 = 0.007611, x1 = 0.003564	1.874 ± 0.04	1.438 ± 0.03	1.13 ± 0.02	0.917 ± 0.02
x2 = 0.00788, x1 = 0.001785	1.826 ± 0.039	1.395 ± 0.03	1.088 ± 0.023	0.894 ± 0.019
x2 = 0.008047, x1 = 0.003562	1.908 ± 0.04	1.463 ± 0.031	1.152 ± 0.024	0.928 ± 0.02
x2 = 0.008846, x1 = 0.005329	2.121 ± 0.045	1.595 ± 0.034	1.25 ± 0.03	1.009 ± 0.021

CCCCCC[n+]1ccn(C)c1.[I-] + [I-].[Li+]
101 kPa, frequency 0.03 MHz, x1 = 0.59
Conditions	electrical conductivity [S/m]
288.1 K	0.000226 ± 1.4e-05
293 K	0.000466 ± 2.8e-05
298.1 K	0.000891 ± 5.3e-05
308.1 K	0.0032 ± 0.00019
313 K	0.00537 ± 0.00032
318.1 K	0.00863 ± 0.00052

viscosity [mPa·s], 101 kPa
Conditions	298.1 K	303 K	308.1 K	328.1 K	368.1 K
x1 = 0.59	15200 ± 1900	–	4263 ± 450	–	–
x1 = 1	–	1175 ± 100	–	213 ± 15	38.5 ± 2.5
